Measured values reported in patent US20230149282A1, “High-Potency Vitamin C Chemical Peeling Solutions” (Baek Clinical Inc., priority 2020, published 2023).
Values belong to the molecule of their own block, whether it stands above or below them.

How the values were obtained:
[1] = use of 4% HQ or 5% Vitamin C; cited from earlier work
[2] = Solubility of optional additional components in polyol solvents; assay type: physicochemical
Excerpt: Additional ingredients were chosen for their compatibility with (e.g., miscibility in) 1,3 propanediol, 1,2 propanediol, and/or 1,3 butanediol.

[3] = Solubilization of ascorbic acid with urea as co-solvent (recrystallization); assay type: physicochemical; settings: in 1,3 propanediol
Excerpt: Maximum saturation level experiments
Next, concentrations of ascorbic acid beyond the aforementioned maximum concentration are solubilized, using urea as a co-solvent.

[4] = Comparative studies: solubilization of prior-art ascorbic acid compositions; assay type: physicochemical; settings: ascorbic acid together with urea in propylene glycol, butylene glycol and propanediol
Protocol: This example was reproduced.
All mixtures were heated to 85° C.

[5] = concentrations of 0.2%; cited from earlier work
[6] = cream containing 10% MAP; cited from earlier work

Molecule: Oc1ccc(O)cc1 [HQ, hydroquinone]
- improvement [1]: 93%
- side-effects [1]: 68.7%

Molecule: O=C1O[C@H]([C@@H](O)CO)C([O-])=C1OP(=O)([O-])[O-].O=C1O[C@H]([C@@H](O)CO)C([O-])=C1OP(=O)([O-])[O-].[Mg+2].[Mg+2].[Mg+2] [MAP, magnesium ascorbyl phosphate]
- brightening/lightening of the appearance of the skin [6]: effectively brighten/lighten the appearance of the skin

Molecule: O=C1O[C@H]([C@@H](O)CO)C(O)=C1O [AA, L-ascorbic acid]
- improvement [1]: 62.5%

The next lines start with results.

- concentration of AzA that can be solubilized ([2]; in 1,3 propanediol): up to 10%
- effect of hydroxyethyl urea on solubility of AzA ([2]; in 1,3 propanediol): slightly increased
- AzA solubilized together with ascorbic acid and urea ([2]; with 10% Ascorbic Acid (AA), 5% Urea in 1,3 propanediol solvent base): 7.5%
Molecule: O=C(O)CCCCCCCC(=O)O [AzA, Azelaic acid]

- minimum amount U required to solubilize 20% AA [3]: ~10%
- solubility of U (saturation reached before recrystallization of U) [3]: ~ 27.8%
- maximum concentrations soluble before urea itself starts to precipitate [4]: 20%
Molecule: NC(N)=O [U, urea]

- solubility ([2]; at 0.2% in 1,3 propanediol, 1,2 propanediol and 1,3 butanediol): soluble
Molecule: Madecassoside
- reduction of erythema (skin redness) [5]: desirable ability to reduce erythema

- solubility ([2]; in 1,3-propanediol): shows solubility
Molecule: CC1(C)[C@@H](O[C@H]2O[C@H](C(=O)O)[C@@H](O)[C@H](O)[C@H]2O[C@@H]2O[C@H](C(=O)O)[C@@H](O)[C@H](O)[C@H]2O)CC[C@]2(C)[C@H]3C(=O)C=C4[C@@H]5C[C@@](C)(C(=O)O)CC[C@]5(C)CC[C@@]4(C)[C@]3(C)CC[C@@H]12 [glycyrrhizic acid, Glycyrrhizic acid]

- solubility ([2]; at 0.5-1% in 1,3 propanediol, 1,2 propanediol and 1,3 butanediol): readily soluble
Molecule: COc1cc(CC(C(C)=O)C(C)=O)ccc1O [Acetyl zingerone]
